Data as given in ChEMBL document CHEMBL1141071, “Carbonic anhydrase inhibitors: stacking with Phe131 determines active site binding region of inhibitors as exemplified by the X-ray crystal structure of a membrane-impermeant antitumor sulfonamide complexed with isozyme II” (J Med Chem, 2005).

Molecular target: Carbonic anhydrase 9 (Homo sapiens, UniProt Q16790)
Description: Inhibition of catalytic domain of human recombinant carbonic anhydrase IX

Cc1ccc(-c2cc(C(F)(F)F)nn2-c2ccc(S(N)(=O)=O)cc2)cc1 [CELECOXIB]
Ki: 16 nM
